The source of these data is ChEMBL document CHEMBL3045250 (Med Chem Res, 2005).

Experiment [1] has as its target T1, 5-hydroxytryptamine receptor 6 (Homo sapiens, UniProt P50406). As to the kind of experiment: Displacement of [3H]LSD from Homo sapiens (human) 5-HT6 receptor expressed in Homo sapiens (human) HEK293 cells. It is filed as cell-based.
The target in experiment [2] is T1, 5-hydroxytryptamine receptor 6. As to the kind of experiment: Binding affinity to 5-HT6 receptor (unknown origin).

T1 sequence (P50406 whole entry): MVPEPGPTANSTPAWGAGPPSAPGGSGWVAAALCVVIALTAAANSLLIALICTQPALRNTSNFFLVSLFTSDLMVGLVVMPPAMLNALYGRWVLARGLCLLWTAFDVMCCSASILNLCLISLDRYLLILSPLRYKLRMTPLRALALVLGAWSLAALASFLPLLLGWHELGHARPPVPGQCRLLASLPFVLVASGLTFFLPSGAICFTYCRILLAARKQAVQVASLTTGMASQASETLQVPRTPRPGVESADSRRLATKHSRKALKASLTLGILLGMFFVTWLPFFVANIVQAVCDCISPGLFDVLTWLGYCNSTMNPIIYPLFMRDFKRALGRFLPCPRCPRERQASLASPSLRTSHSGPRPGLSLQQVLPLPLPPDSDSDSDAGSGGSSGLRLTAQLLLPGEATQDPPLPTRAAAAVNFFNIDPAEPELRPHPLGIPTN

`CCc1[nH]c2ccncc2c1CCN(C)C`: in experiment [1], the Ki is 2900 nM. The same measure, in the same setting: as for `CN(C)CCc1c(-c2ccccc2)[nH]c2ccncc12`, the figure is 270 nM. For `NCCc1c[nH]c2ccncc12` [5-Azatryptamine], in experiment [1], the affinity, expressed as Ki, was 64 nM. The same measure, in the same setting: as for `CCc1[nH]c2ccncc2c1CCN`, the figure is 4900 nM. For `CNc1cc(NS(=O)(=O)c2ccc(N)cc2)nc(NC)n1`, in experiment [2], the Ki is 58 nM. The compound `Cc1cn(S(=O)(=O)c2ccc(N)cc2)c2ccncc12` had a Ki in experiment [1] of 41 nM. The compound `CN(C)CCc1cn(S(=O)(=O)c2ccccc2)c2ccncc12` had a Ki in experiment [1] of 84 nM. Still for that read-out and setting: as for `NCCc1c(-c2ccccc2)[nH]c2ccncc12`, the figure is 2600 nM.

As for `CN(C)CCc1c[nH]c2ccncc12`, affinity in experiment [1] was put at a Ki of 100 nM.

What is called Ki is the dissociation constant of the complex between target and ligand, obtained from inhibition or displacement. Read a low Ki as tighter binding.
